Source: patent US9456555B2, “Agent for treating grape vine wood” (Financiere Mercier, priority 2011, dated 2016)

Key:
[1] = test system: Botryosphaeria obtusa, Botryosphaeria dothidea, Eutypa lata, Fomitiporia punctata, Phaeacremonium aleophilum, Phaeomonelia chlamydospora, Phaeoacremonium spp. …; test: Comparative in vivo test of wood disinfection, PCR analysis for presence of 8 fungi; design: species or system grapevine; details: immersion 12 h
Protocol: The in vivo test consisted of evaluating a set of 1025 plants derived from 4 rootstocks and 5 different varieties (to limit the varietal effect). Samples of the seedlings were taken before and after treatment. The treatment consisted of immersing the wood in the various solutions under test for 12 h, i.e. the usual rehydration time of the wood in the nursery (overnight). The samples of wood before and after treatment were analyzed, by extracting the total DNA of the wood samples taken, and evaluation by molecular diagnostics (PCR analysis) for the presence or absence of these 8 fungi: Botryosphaeria obtusa, Botryosphaeria dothidea, Eutypa lata, Fomitiporia punctata, Phaeacremonium aleophilum, Phaeomonelia chlamydospora, Phaeoacremonium spp. and Cylindrocarpon destructans. […] If nothing is indicated, it is because it was never found.

[2] = test system: 8 fungi referenced as pathogens and associated with various diseases of the wood; test: Comparative in vitro test on PDA medium, mycelium growth; assay type: cell-based; details: 10 ml solution left for 12 h on PDA; observed several weeks, about 25° C.; neutral anolyte 100%
Protocol: That is why an in vitro test was carried out, in order to compare the effect of water, hydrogen peroxide, desogerm and the neutral anolyte (100%) on 8 fungi referenced as pathogens and associated with various diseases of the wood. Strains of the 8 fungi mentioned above were deposited on culture medium with low discrimination (PDA—Potato Dextrose Agar—Medium). Then 10 ml of each solution was added to Petri dishes with the inoculated strains of fungi, and left for 12 h.

grapevine seedlings = test: Percentage of recovery (take) after planting; assay type: in vivo
From the text: The result of recovery (take) after planting (growth of the plants) is very important, as the treatment must not be injurious for the grapevine seedlings.

Percentage of recovery of the treated seedlings (grapevine seedlings; 8 days after planting): 59% | Percentage of recovery of the treated seedlings (grapevine seedlings; 20 days after planting): 94.8% | alteration of the wood (grapevine seedlings; contact with the cuttings during the rehydration phase): alters the wood
SMILES: OO [H2O2, hydrogen peroxide]
fungus found at least once among the individuals evaluated (PCR) ([1]; Merlot.N (182), with THW (50° C.-45 min)): B.obt | fungus found at least once among the individuals evaluated (PCR) ([1]; R110 (151), with THW (50° C.-45 min)): B.obt | fungus found at least once among the individuals evaluated (PCR) ([1]; SO4(203), with THW (50° C.-45 min)): B.obt | fungus found at least once among the individuals evaluated (PCR) ([1]; SO4(203), without THW): E.lata | growth of the fungi (radius of mycelium) [2]: a certain efficacy
